From publication PMC9569529, “Safe and Efficient Sigma1 Ligand: A Potential Drug Candidate for Multiple Sclerosis” (International Journal of Molecular Sciences, 2022)
Blank lines part the entries; values can stand above or below the compound they belong to.

Assays:
S1R = biological target: T1, S1R (Homo sapiens, UniProt Q99720); assay: S1R binding assay, [3H](+)-pentazocine, Jurkat cell membranes
T1 construct: host or cells: Jurkat cell membranes
Description: The binding assays were performed by Eurofins Cerep (Poitiers, France) according to Ganapathy. Briefly, S1R)binding assay was carried out by incubating Jurkat cell membranes ([…] protein per tube) with [^3H] (+)-pentazocine (15 nM) and a range of concentrations of test compounds at 37 °C for 2 h in 5 mM Tris HCl buffer (pH = 7.4). The S2R binding assay was performed by incubating Jurkat cell membranes ([…] protein per tube) with [^3H]-DTG (25 nM) in the presence of (+)-pentazocine (1 mM), to saturate S1R, and a range of concentrations of test compounds at room temperature for 1 h in 5 mM Tris HCl buffer (pH = 7.4). Bound radioactivity was measured using liquid scintillation counting. Nonspecific binding was determined in both assays, under similar conditions, as remaining in the presence of […] unlabeled haloperidol. Inhibition constants (Ki) were calculated from the IC50 values according to the method of Cheng and Prusoff.

CYP1A2 = assay: CYP induction in human hepatocytes (mRNA, qPCR); assay type: in vitro ADME; details: 10 µM
Description: (§1) The compound was classically evaluated at 10 µM for all the ADME analyses. Bidirectional permeability (apical A to basolateral B pH 6.5/7.4 and basolateral B to apical A pH 7.4/6.5) was assessed in the epithelial colorectal adenocarcinoma cell line (Caco-2 cell line). Results were expressed as × 10^−6cm/s (Papp) and as % recovery. Efflux ratio, i.e., Papp(B-A)/Papp(A-B), was calculated. Plasma protein binding was analyzed by HPLC-MS/MS after 4-h incubation at 37 °C, as described by Banker et al.. Concentration was evaluated by LC/MS-MS. CYP inhibition was performed in human liver microsomes as described in [61]. Analysis of the respective metabolites. was performed by HPLC-MS/MS. Transporter inhibition analysis was also performed in overexpressing cell lines. Respective metabolites for each specific transporter substrate were analyzed by fluorometry or scintillation counting and % inhibition of control values were calculated. P-glycoprotein transporter substrate assessment was performed by bidirectional permeability analysis (apical A to basolateral B pH 7.4/7.4 and basolateral B to apical A pH 7.4/7.4) in the Caco-2 cell line with and without verapamil, as described in [59]. Results were expressed as ×10^−6 cm/s (Papp) and as % recovery. The efflux ratio, i.e., Papp(B-A)/Papp(A-B), was calculated. CYP450 induction characterization was performed on human hepatocytes. The mRNA levels of 7 different CYPs were analyzed by qPCR, as described in [72]. The compound was evaluated at 1, 10 and 100 µM. Fold-induction values were determined and compared to cut-off values, as defined for each CYP isozyme in each hepatocyte lot.

CYP2B6 = assay: CYP induction in human hepatocytes (mRNA, qPCR); assay type: in vitro ADME; details: 10 µM
Description: as §1

CYP3A4 = assay: CYP induction in human hepatocytes (mRNA, qPCR); assay type: in vitro ADME; details: 10 µM
Description: as §1

S1R–BiP complex = assay: S1R-BiP dissociation assay in CHO cells (co-IP, ELISA); assay type: cell-based
Description: The activity of compound 7i was evaluated in regard to its ability to dissociate the S1R–BiP complex. The S1R–BiP dissociation assay was performed by Amylgen (Montferrier-sur-Lez, France) as described in [13, 79]. Briefly, CHO cells were treated with test compounds for 30 min (37 °C). Crosslinking was performed with dithiobis succinimidyl propionate (DSP; Thermoscientific, Waltham, MA, USA). Lysis was performed after incubation for 15 min on ice. After centrifugation, supernatants were incubated overnight (4 °C) with the S1R antibody (Abcam, Cambridge, UK). Lysates were incubated with Sepharose Protein-A (Invitrogen). After the first centrifugation, the pellet was resuspended in radioimmunoprecipitation assay (RIPA) buffer. After a second centrifugation, the pellet was resuspended in 2× sample buffer/bMCE buffer. After the third centrifugation, supernatants were analyzed for BiP immunoreactivity (SEC343Mu ELISA, USCNK Life Sciences, Wuhan, China).

SH-SY5Y = tested on: SH-SY5Y; parameters: method as in PMID 28756263; details: cited from earlier work
S. typhimurium TA98 = assay: Ames test; details: 7i 40 µg/plate

T1 sequence (Q99720 whole entry): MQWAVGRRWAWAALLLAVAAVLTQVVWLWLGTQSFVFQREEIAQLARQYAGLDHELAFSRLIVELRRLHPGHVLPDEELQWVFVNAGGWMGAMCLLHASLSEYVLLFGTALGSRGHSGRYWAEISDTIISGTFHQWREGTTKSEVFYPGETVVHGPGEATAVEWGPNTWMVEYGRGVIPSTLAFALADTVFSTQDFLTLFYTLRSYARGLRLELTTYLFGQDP

Ki (S1R): 23 nM
SMILES: O=C(NCCCNCc1ccccc1)c1ccc(Cl)cc1 [compound 7i-deMe]

SMILES: CN(CCCNC(=O)c1ccc(Cl)cc1)Cc1ccccc1 [compound 7i]
modulation of CYP1A2 (induction, conclusion) (CYP1A2; three donors): No modulation
CYPs induction CYP1A2, donor #1 (CYP1A2; donor #1, cut-off (2)): 2.7%
CYPs induction CYP1A2, donor #2 (CYP1A2; donor #2, cut-off (5)): 1.5%
CYPs induction CYP1A2, donor #3 (CYP1A2; donor #3, cut-off (2)): 1.9%
modulation of CYP2B6 (induction, conclusion) (CYP2B6; three donors): No modulation
CYPs induction CYP2B6, donor #1 (CYP2B6; donor #1, cut-off (3)): 4.1%
CYPs induction CYP2B6, donor #2 (CYP2B6; donor #2, cut-off (4)): 4.1%
CYPs induction CYP2B6, donor #3 (CYP2B6; donor #3, cut-off (2)): 4.2%
modulation of CYP3A4 (induction, conclusion) (CYP3A4; three donors): No modulation
CYPs induction CYP3A4, donor #1 (CYP3A4; donor #1, cut-off (4)): 4.2%
CYPs induction CYP3A4, donor #2 (CYP3A4; donor #2, cut-off (6)): 1.6%
CYPs induction CYP3A4, donor #3 (CYP3A4; donor #3, cut-off (3)): 0.8%
effect on S1R–BiP association (S1R–BiP complex; 1 and 10 µM, 30-min incubation): significantly causes a dose-dependent dissociation
S1R functional activity (S1R–BiP complex; S1R–BiP dissociation blocked by NE-100): agonist capacity
effect on S1R–BiP dissociation in presence of NE-100 (S1R–BiP complex; co-treatment with NE-100 (10 µM)): blocked
S1R antagonist capacity (co-treatment with PRE-084) (S1R–BiP complex; co-treatment with PRE-084 (10 µM)): absence of antagonist capacity
Inhibition SH-SY5Y (% at 100 µM) (SH-SY5Y; 100 µM): 28%
cytotoxicity (SH-SY5Y): no cytotoxicity
Ames TA98 +S9 (Mean revertants/well per title) (S. typhimurium TA98; +S9, positive control 2-anthramine 0.5): 1.1
Ames TA98 −S9 (Mean revertants/well per title) (S. typhimurium TA98; −S9, positive control 2-nitrofluorene 0.5): 1.1
